Reference: article PMC3462775 (PLoS ONE, 2012)
Converted amounts (≈) assume the structure as drawn. Bridge positions count the residues as written; N and C are the ends. Square brackets hold non-standard residues; d marks the D form. Peptide text beside a SMILES is read from it. I, II: the chains in the order shown. βAla = NCCC(=O)O

Experiments:
[1] = system: K.pneumoniae ATCC 13833; assay: MIC, standard microdilution assay; format: cell-based, Klebsiella pneumoniae; settings: Reference strain, wild type; CLSI microdilution, cation-supplemented Mueller-Hinton broth, 5x10^4 CFU/well, 18–20 h at 37°C, triplicate
Procedure: (§1) MICs were determined using a standard microdilution assay as recommended by the Clinical and Laboratory Standards Institute. Assays were performed in triplicate using cation-supplemented Mueller-Hinton (MH) broth (Becton Dickinson, Franklin Lakes, NJ, USA) and a bacterial inoculum of 5x10^4 CFU/well, in a final volume of 100 µl. The tested concentrations ranged from 0.1 µM to 24 µM for both peptides. Results were recorded after 18–20 h of incubation at 37°C.

[2] = system: S. aureus USA300; assay: In vivo anti-MRSA activity, lethal i.p. infection of mice; settings: Balb-c mice (20 g), groups of 5, i.p. LD100 (1×10^6) S. aureus USA 300 in 7% mucin, single i.p. peptide 25 mg/kg 30 min later; for survival: after 7 days
Procedure: The smallest number of bacteria causing 100% lethal infection (LD100) after intra-peritoneal (i.p.) injection was 1×10^6 in the presence of 7% mucin. An LD100 killed mice within 20 hours. Mice were infected with the LD100 of bacteria and treated i.p. with the peptides 30 minutes later.
Figure 4 In vivo antibacterial activity of tetrabranched M33-L and M33-D peptides. Balb-c mice (20 g) were injected i.p. with a lethal amount of S. aureus USA300 cells. Dashed line (Ctr), injection with bacteria and no peptides; dotted line, injection with bacteria and a single injection of M33-L peptide (25 mg/kg) 30 min later; continuous line, injection with bacteria and a single injection of M33-D peptide (25 mg/kg) 30 min later.
Animal procedures were approved by the Ethical Committee of the Azienda Ospedaliera Universitaria Senese on November 18, 2010. Balb-c mice (20 g) were infected i.p. with lethal amounts of bacteria (see results) mixed in 500 µl PBS +7% mucin (mucin from porcine stomach, type II, Sigma-Aldrich). Bacteria were cultured overnight, centrifuged, mixed in sterile PBS, and measured by spectrophotometer. Possible further dilutions in PBS were sometimes necessary to obtain the right amount of bacteria. Groups consisted of 5 animals. Moribund animals were killed humanely to avoid unnecessary distress. Surviving mice were monitored for 7 days. Thirty minutes after bacterial administration, peptides were inoculated i.p. with 0.5 ml PBS solution containing the indicated amount of peptide (see Results). Control animals received only PBS. P values were calculated using GraphPad Prism software.

[3] = biological target: T1, Pseudomonas aeruginosa elastase (Pseudomonas aeruginosa, UniProt P14756); format: in vitro ADME; settings: 1 mM CaCl2 pH 7.8, 37°C; for stability to elastase (in words): HPLC and MS
T1 construct: purchased Calbiochem
Procedure: Tetrabranched M33-L or M33-D peptides (300 µg) were incubated at 37°C with Staphylococcus aureus aureolysin (3 µg, BioCol GmbH) or Pseudomonas aeruginosa elastase (3 µg, Calbiochem) in 300 µl 20 mM Tris-HCl, 1 mM CaCl2 pH 7.8. At indicated time intervals, 50 µl aliquots were removed, diluted with 950 µl of 0.1% trifluoroacetic acid (TFA)/water and analyzed by HPLC and mass spectrometry. Liquid chromatography was performed on Phenomenex Jupiter C18 analytical column (300 Å, 5 µm, 250×4.6 mm) in a 30 min gradient, using TFA 0.1%/water as solvent A and methanol as solvent B. Mass spectrometry analysis was performed on withdrawn samples and repeated on HPLC-eluted peaks with a Bruker Daltonic ultraflex MALDI TOF/TOF mass spectrometer.

[4] = Binding of LPS and LTA to immobilized peptides, surface plasmon resonance; settings: SPR, biotinylated peptides immobilized on SA flow cells; LPS/LTA 10 µg/ml in HBS-EP+ pH 7.4, injected 180 sec at 30 µl/min
Procedure: Biotinylated peptides were immobilized on SA coated flow cells. M33-L and M33-D peptides, diluted to 10 µg/ml in HBS-EP+ buffer (10 mM Hepes, 150 mM NaCl, 3.4 mM EDTA, 0.05% polysorbate 20 pH 7.4), were injected for 90 sec at a flow rate of 10 µl/min, obtaining 550 RU and 580 RU for M33-L and M33-D respectively.
LTA and LPS molecules from different species (LPS from E. coli, K. pneumonia, P. aeruginosa and LTA from S. aureus and S. faecalis, were obtained from Sigma-Aldrich: L-3012, L-4268, L9143, L2515 and L4015, respectively) were diluted in HBS-EP+ buffer at the concentration of 10 µg/ml and injected for 180 sec with a flow rate of 30 µl/min over immobilized peptides. An empty flow cell was used as reference.

[5] = system: S.epidermidis 6154; format: cell-based, Staphylococcus epidermidis
Procedure: as §1

[6] = system: P. aeruginosa ATCC 27853 biofilm; format: cell-based, Pseudomonas aeruginosa; settings: ATCC 27853, 2 h
Procedure: (§2) Biofilm formation was performed by adapting the procedure described in [39] using the Calgary Biofilm Device (Innovotech, Innovotech Inc. Edmonton, Canada). Briefly, 96-well plates containing the bacterial inoculum were sealed with lids bearing 96 pegs on which the biofilm could build up. The plates were placed in an orbital incubator at 35°C (for P. aeruginosa and E. coli) or 37°C (for S. aureus) for 20 h under agitation at 125 rpm. Once biofilms formed, the lids were removed from the plates and the pegs were rinsed twice with phosphate buffered saline (PBS) to remove planktonic cells. The peg-lid was then transferred to a 96-well challenge microtiter plate, each well containing 200 µl of a twofold serial dilution of each peptide in LB medium. The challenge plate was incubated at 37°C for 2 hours. Peptide activity on pre-formed biofilm was evaluated by two independent methods: (i) visual observation of bacterial growth and (ii) counting of living bacterial cells after peptide treatment. In the first case, the peg-lid was removed from the challenge plate, rinsed with PBS and used to cover a 96-well recovery microtiter plate, each well containing 200 µl LB medium. […] Colony forming units (CFU) were expressed as percentage with respect to control (peptide-untreated biofilms). […]

[7] = system: E. coli ATCC 25922 biofilm; format: cell-based, Escherichia coli; settings: ATCC 25922, 2 h
Procedure: as §2

[8] = 300 µg peptide + 3 µg P. aeruginosa elastase, 20 mM Tris-HCl

T1 sequence (P14756 198-498): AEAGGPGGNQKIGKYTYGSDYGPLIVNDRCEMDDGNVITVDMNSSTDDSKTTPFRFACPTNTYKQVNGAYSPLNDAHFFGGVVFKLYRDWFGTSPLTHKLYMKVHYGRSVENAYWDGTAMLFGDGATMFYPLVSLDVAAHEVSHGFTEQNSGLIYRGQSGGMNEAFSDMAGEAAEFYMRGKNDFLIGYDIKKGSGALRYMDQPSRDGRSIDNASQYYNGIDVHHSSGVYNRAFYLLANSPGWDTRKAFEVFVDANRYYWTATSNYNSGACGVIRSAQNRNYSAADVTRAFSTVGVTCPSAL

| SMILES | MIC [1] [µM] | survival [2] [%] | time of resistance to degradation by elastase ([3]; 300 µg peptide + 3 µg P. aeruginosa elastase in 300 µl 20 mM Tris-HCl, HPLC and MALDI MS read-out) [h] | stability to elastase (in words) [3, 8] | binding and kinetic rates of LPS and LTA, M33-L compared with M33-D (in words) [4] | MIC [5] [µM] | Minimum bactericidal concentration on biofilm (MBCb) [6] [µM] | Minimum bactericidal concentration on biofilm (MBCb) [7] [µM] | mortality (in words) [2] | stability after 5 h incubation with elastase (in words) ([3]; 5 h, 300 µg peptide + 3 µg P. aeruginosa elastase, 20 mM Tris-HCl, HPLC peak of intact peptide still present) |
| --- | --- | --- | --- | --- | --- | --- | --- | --- | --- | --- |
| CC[C@@H](C)[C@@H](NC(=O)[C@@H](CCCCN)NC(=O)[C@H](N)CCCCN)C(=O)N[C@H](CCCNC(=N)N)C(=O)N[C@@H](C(=O)N[C@H](CCCNC(=N)N)C(=O)N[C@H](CC(C)C)C(=O)N[C@H](CO)C(=O)N[C@H](C)C(=O)NCCCC[C@H](NC(=O)[C@@H](C)NC(=O)[C@@H](CO)NC(=O)[C@@H](CC(C)C)NC(=O)[C@@H](CCCNC(=N)N)NC(=O)[C@H](NC(=O)[C@@H](CCCNC(=N)N)NC(=O)[C@H](NC(=O)[C@@H](CCCCN)NC(=O)[C@H](N)CCCCN)[C@H](C)CC)C(C)C)C(=O)NCCCC[C@H](NC(=O)[C@H](CCCCNC(=O)[C@@H](C)NC(=O)[C@@H](CO)NC(=O)[C@@H](CC(C)C)NC(=O)[C@@H](CCCNC(=N)N)NC(=O)[C@H](NC(=O)[C@@H](CCCNC(=N)N)NC(=O)[C@H](NC(=O)[C@@H](CCCCN)NC(=O)[C@H](N)CCCCN)[C@H](C)CC)C(C)C)NC(=O)[C@@H](C)NC(=O)[C@@H](CO)NC(=O)[C@@H](CC(C)C)NC(=O)[C@@H](CCCNC(=N)N)NC(=O)[C@H](NC(=O)[C@@H](CCCNC(=N)N)NC(=O)[C@H](NC(=O)[C@@H](CCCCN)NC(=O)[C@H](N)CCCCN)[C@H](C)CC)C(C)C)C(=O)NCCC(=O)O)C(C)C [M33-D] (I: H-[dK][dK][dI][dR][dV][dR][dL][dS][dA]KK[βAla]-OH / II: H-[dK][dK][dI][dR][dV][dR][dL][dS][dA]K / III: H-[dK][dK][dI][dR][dV][dR][dL][dS][dA] / IV: H-[dK][dK][dI][dR][dV][dR][dL][dS][dA]; amide I:10-IV:C, I:11-II:C, II:10-III:C; N-terminus assumed) | 3 (≈ 14 µg/mL) | 100 | ≥ 24 | highly stable | No significant difference in binding or kinetic rates | 0.7 (≈ 3.28 µg/mL) | 6 (≈ 28.1 µg/mL) | 6 (≈ 28.1 µg/mL) | – | – |
| CC[C@H](C)[C@H](NC(=O)[C@H](CCCCN)NC(=O)[C@@H](N)CCCCN)C(=O)N[C@@H](CCCNC(=N)N)C(=O)N[C@H](C(=O)N[C@@H](CCCNC(=N)N)C(=O)N[C@@H](CC(C)C)C(=O)N[C@@H](CO)C(=O)N[C@@H](C)C(=O)NCCCC[C@H](NC(=O)[C@H](C)NC(=O)[C@H](CO)NC(=O)[C@H](CC(C)C)NC(=O)[C@H](CCCNC(=N)N)NC(=O)[C@@H](NC(=O)[C@H](CCCNC(=N)N)NC(=O)[C@@H](NC(=O)[C@H](CCCCN)NC(=O)[C@@H](N)CCCCN)[C@@H](C)CC)C(C)C)C(=O)NCCCC[C@H](NC(=O)[C@H](CCCCNC(=O)[C@H](C)NC(=O)[C@H](CO)NC(=O)[C@H](CC(C)C)NC(=O)[C@H](CCCNC(=N)N)NC(=O)[C@@H](NC(=O)[C@H](CCCNC(=N)N)NC(=O)[C@@H](NC(=O)[C@H](CCCCN)NC(=O)[C@@H](N)CCCCN)[C@@H](C)CC)C(C)C)NC(=O)[C@H](C)NC(=O)[C@H](CO)NC(=O)[C@H](CC(C)C)NC(=O)[C@H](CCCNC(=N)N)NC(=O)[C@@H](NC(=O)[C@H](CCCNC(=N)N)NC(=O)[C@@H](NC(=O)[C@H](CCCCN)NC(=O)[C@@H](N)CCCCN)[C@@H](C)CC)C(C)C)C(=O)NCCC(=O)O)C(C)C [M33-L] (I: H-KKIRVRLSAKK[βAla]-OH / II: H-KKIRVRLSAK / III: H-KKIRVRLSA / IV: H-KKIRVRLSA; amide I:10-IV:C, I:11-II:C, II:10-III:C; N-terminus assumed) | 1.5 (≈ 7.02 µg/mL) | 0 | – | poorly stable | No significant difference in binding or kinetic rates | 3 (≈ 14 µg/mL) | 6 (≈ 28.1 µg/mL) | 6 (≈ 28.1 µg/mL) | mortality overlapping that of controls | moderate peptide stability |
